# Assay results reported in ChEMBL document CHEMBL3044813, “Bloodbrain barrier permeability and transport studies of JLK1486: a new antiglioblastoma drug” (Med Chem Res, 2012).
# The source made the active and inactive calls. No cut-off for these calls is given here.
# Key:
# [1] = tested on: Glioma; assay: Antitumor activity against Homo sapiens (human) Glioma cells xenografted in transgenic mouse assessed as mouse survival; assay type: functional, cell-based
# [2] = target: T1, ATP-dependent translocase ABCB1 (Homo sapiens, UniProt P08183); assay: Inhibition of Progesterone-induced P-gp ATPase activity (unknown origin) at 1 uM by spectrophotometry (reference value: 61.5 nmol/mg/min)
# [3] = target: T1, ATP-dependent translocase ABCB1; assay: Modulation of P-gp ATPase activity (unknown origin) at 10 uM by spectrophotometry (RvB = 30.2 nmol/mg/min)
# [4] = target: T1, ATP-dependent translocase ABCB1; assay: Inhibition of Vinblastine-induced P-gp ATPase activity (unknown origin) at 1 uM by spectrophotometry (reference value: 42.8 nmol/mg/min)
# [5] = tested on: Cerebrospinal fluid; assay: Drug uptake in Rattus norvegicus Sprague-Dawley (rat) CSF at 10 mg/kg, iv after 1 hr by HPLC analysis; assay type: ADME, organism-based; parameters: dose 10 mg/kg, route intravenous; settings: in vivo
# [6] = target: T1, ATP-dependent translocase ABCB1; assay: Inhibition of Vinblastine-induced P-gp ATPase activity (unknown origin) at 10 uM by spectrophotometry (reference value: 42.8 nmol/mg/min)
# [7] = target: T1, ATP-dependent translocase ABCB1; assay: Modulation of P-gp ATPase activity (unknown origin) at 1 uM by spectrophotometry (RvB = 30.2 nmol/mg/min)
# [8] = target: T1, ATP-dependent translocase ABCB1; assay: Inhibition of Progesterone-induced P-gp ATPase activity (unknown origin) at 10 uM by spectrophotometry (reference value: 61.5 nmol/mg/min)
# [9] = tested on: Brain; assay: Drug uptake in Rattus norvegicus Sprague-Dawley (rat) brain at 10 mg/kg, iv by HPLC analysis; assay type: ADME, organism-based; parameters: dose 10 mg/kg, route intravenous; settings: in vivo
# [10] = target: T1, ATP-dependent translocase ABCB1; assay: Inhibition of Verapamil-induced P-gp ATPase activity (unknown origin) at 1 uM by spectrophotometry (reference value: 90.7 nmol/mg/min)
# [11] = target: T1, ATP-dependent translocase ABCB1; assay: Inhibition of Verapamil-induced P-gp ATPase activity (unknown origin) at 10 uM by spectrophotometry (reference value: 90.7 nmol/mg/min)
# [12] = tested on: Blood brain barrier; assay: Permeability across blood brain barrier of Rattus norvegicus Sprague-Dawley (rat) at 10 mg/kg, iv; assay type: ADME, organism-based; parameters: dose 10 mg/kg, route intravenous; settings: in vivo
# T1 sequence (P08183 whole entry): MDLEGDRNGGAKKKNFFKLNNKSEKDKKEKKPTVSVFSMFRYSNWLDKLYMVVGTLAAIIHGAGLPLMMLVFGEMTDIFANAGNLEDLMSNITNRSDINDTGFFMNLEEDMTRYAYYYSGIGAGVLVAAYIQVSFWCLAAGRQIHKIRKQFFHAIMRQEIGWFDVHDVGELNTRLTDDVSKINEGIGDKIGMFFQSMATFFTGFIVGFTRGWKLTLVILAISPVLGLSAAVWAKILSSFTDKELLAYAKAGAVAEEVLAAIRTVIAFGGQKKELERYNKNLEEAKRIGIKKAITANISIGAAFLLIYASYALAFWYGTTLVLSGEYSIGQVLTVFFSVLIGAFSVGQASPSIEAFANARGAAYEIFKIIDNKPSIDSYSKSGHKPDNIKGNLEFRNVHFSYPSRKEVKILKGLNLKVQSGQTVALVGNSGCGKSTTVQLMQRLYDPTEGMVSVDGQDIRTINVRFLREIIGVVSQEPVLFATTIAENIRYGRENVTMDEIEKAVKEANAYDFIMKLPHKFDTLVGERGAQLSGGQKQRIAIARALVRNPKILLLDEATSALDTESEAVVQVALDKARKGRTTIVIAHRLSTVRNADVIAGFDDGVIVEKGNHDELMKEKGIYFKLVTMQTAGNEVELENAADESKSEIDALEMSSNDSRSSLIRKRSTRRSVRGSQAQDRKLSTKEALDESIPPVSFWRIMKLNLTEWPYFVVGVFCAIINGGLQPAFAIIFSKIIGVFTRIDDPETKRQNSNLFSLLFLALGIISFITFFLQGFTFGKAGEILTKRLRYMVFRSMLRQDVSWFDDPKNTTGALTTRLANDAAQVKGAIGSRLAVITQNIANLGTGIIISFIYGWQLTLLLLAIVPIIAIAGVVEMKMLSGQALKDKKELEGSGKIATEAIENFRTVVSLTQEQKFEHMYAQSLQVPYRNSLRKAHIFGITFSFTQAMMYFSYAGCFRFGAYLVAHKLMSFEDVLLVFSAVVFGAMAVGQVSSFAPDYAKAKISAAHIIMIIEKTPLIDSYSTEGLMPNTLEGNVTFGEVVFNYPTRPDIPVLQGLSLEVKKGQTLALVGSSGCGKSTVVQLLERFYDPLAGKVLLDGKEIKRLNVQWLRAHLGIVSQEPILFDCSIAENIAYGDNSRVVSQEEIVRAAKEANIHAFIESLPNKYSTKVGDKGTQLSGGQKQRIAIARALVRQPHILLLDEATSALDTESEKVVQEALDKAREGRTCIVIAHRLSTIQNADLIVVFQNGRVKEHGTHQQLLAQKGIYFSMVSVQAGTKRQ
Activity [2] [nmol/mg/min],Activity [3] [nmol/mg/min],Activity [4] [nmol/mg/min],Drug uptake [5] [%],Activity [6] [nmol/mg/min],Activity [7] [nmol/mg/min],Activity [8] [nmol/mg/min],Drug uptake [9] [%],Activity [10] [nmol/mg/min],Activity [11] [nmol/mg/min],pBBB [12] [×10⁻³ cm/s],Compound,Activity [1]
54.8,33.1,34.3,0.037,30.8,31.3,51.8,2.2,84.5,77.1,,Oc1ccc(CN(Cc2ccc(C(F)(F)F)cc2)Cc2ccc(O)c3ncccc23)c2cccnc12,Active
,,,,,,,,,,2.7,Cn1nnc2c(C(N)=O)ncn2c1=O [TEMOZOLOMIDE],Active
